Here are results for 81 molecules from the METLIN SMRT retention time set (Domingo-Almenara et al. 2019).

Structures are written as SMILES.

The nature of the data set: gradient 5% acetonitrile 3 min, to 50% in 2 min, to 85% in 15 min, held 3 min, 100 µL/min. As to conditions: column: Zorbax Extend-C18 2.1 x 50 mm; eluents: water / acetonitrile, 0.1% formic acid. Summed up: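 Mixtures of ~100 pure standards were chromatographed on a Zorbax Extend-C18 column (2.1 × 50 mm, 1.8 μm) at 100 μL/min using water and acetonitrile, each with 0.1% formic acid. Detection used a quadrupole time-of-flight mass spectrometer in positive and negative ionization mode, and data collection spanned 3 months. Retention time was obtained from adduct peaks picked computationally and each checked manually.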
The molecule `COc1ccc(S(=O)(=O)N(CC(=O)NO)CC(C)C)cc1` yielded an RP-LC retention time of 615 s.
The figure for `CN1C(=O)CCc2cc(NS(=O)(=O)c3ccc(F)c(F)c3)ccc21` is 781 s.
The figure for `CC1CCCCN1CCCNC(=O)CC1CCN(C(=O)C2CCCCC2)CC1` (stereo unspecified) is 605 s; for `Cc1ccc(NC(=O)C2CCN(S(=O)(=O)c3cc(C(=O)N4CCCC4)cs3)CC2)cc1` it is 830 s.
The same measure for `CN1C(=O)CC[C@]2(C(=O)N3CCN(c4ccc(F)cc4)CC3)CCCC[C@@H]12`: 723 s; for `COc1ccc(C2CC(=O)c3cnc(N4CCN(c5ccccn5)CC4)nc3C2)c(OC)c1` (stereo unspecified): 713 s.
In turn, `O=C1CCC(c2ccccc2)=NN1c1nc2ccccc2s1` registered an RP-LC retention time of 884 s.
`O=C(CN1C(=O)CCc2cc(Br)ccc21)Nc1ccc2c(c1)OCO2`: the RP-LC retention time came out at 792 s.
Molecule `Cn1nc(-c2nc(C3CC3)no2)c2c1CCN(C(=O)Nc1cccc(F)c1)C2` yielded an RP-LC retention time of 840 s.
The same measure for `Fc1ccc(CNc2ccc(-c3nc(-c4ccc(F)cc4)no3)cn2)cc1`: 1220 s; for `CC(C)n1cc(CN2CCC3(CC2)CN(Cc2ccccc2)CC3CO)cn1` (stereo unspecified): 524 s.
The figure for `Cc1nc2cc(-c3noc(/C=C/c4cccs4)n3)ccc2o1` is 1080 s; for `CCN1CCCC(C(=O)NCc2cccc(OC)c2OC)(c2ccccc2)CC1` (stereo unspecified) it is 660 s; for `CC(C)c1noc(-c2cc(=O)n(CC(=O)Nc3ccccc3Cl)c3ccccc23)n1` it is 1050 s.
`Cc1cccc(OCCn2c(CCO)nc3ccccc32)c1C` showed an RP-LC retention time of 599 s.
For `CN1CCN(C(=O)C2CCN(c3nc4ccc(-c5cccs5)nc4s3)CC2)CC1`, the RP-LC retention time worked out at 646 s.
The same measure for `CC(CCc1ccccc1)NC(=O)c1cc2sccc2n1Cc1ccc(Cl)cc1` (stereo unspecified): 1260 s.
The molecule `CCn1c(=O)c2ccnn2c2ccc(C(=O)O)cc21` registered an RP-LC retention time of 662 s.
The figure for `Cc1ccc(N2CCC(NC(=O)c3ccc(C#N)cc3)C2=O)cc1` (stereo unspecified) is 798 s; for `O=C(NC1CCCC1)c1ccc(CN2CCN(Cc3ccc(F)cc3)C(=O)C2=O)cc1` it is 768 s.
The figure for `O=C(CS(=O)Cc1cnn(-c2ccccc2)c1-n1cccc1)N1CCC(Cc2ccccc2)CC1` (stereo unspecified) is 1010 s; for `COc1ccc(NC(=O)CSc2nnc3c4cc(-c5ccc(C)c(C)c5)nn4ccn23)cc1Cl` it is 997 s.
The figure for `O=C(c1ccoc1)N1CCC(c2noc(-c3ccncc3)n2)C1` (stereo unspecified) is 665 s; for `CCn1c(=O)c(C(=O)N2CCN(C3CCCCC3)CC2)nc2cccnc21` it is 520 s.
`O=c1c2c(CO)c(-c3ccccc3)nn2ccn1Cc1ccccc1` displayed an RP-LC retention time of 896 s.
In turn, `O=C(c1cccc(N2CCNC(c3ccccc3)C2)n1)N1CCCCC1` (stereo unspecified) registered an RP-LC retention time of 615 s.
The figure for `COc1ccc(Cl)cc1NC(=O)C1CCN(S(=O)(=O)c2ccc3c(c2)NC(=O)CO3)CC1` is 880 s; for `CCN1CCN(CCNC(=O)c2ccc(-c3ccc4c(c3)CCN4C(C)=O)cc2)CC1` it is 598 s.
The same measure for `COc1ccc(OC)c2sc(NC(=O)c3cccc(N4C(=O)CCC4=O)c3)nc12`: 716 s; for `Cc1cccc(NC(=O)N2CCC(n3cnc4c(Cl)cccc4c3=O)CC2)c1`: 877 s; for `Cc1ccc(-n2cc(C(=O)OCC(=O)OC(C)C)c3ccccc3c2=O)cc1`: 1130 s.
The same measure for `Cc1ccc(CN2CCCn3nc(C(=O)NCCN4CCCCC4)cc3C2=O)cc1`: 631 s; for `COc1ccc(N2CC(c3noc(-c4ccc5c(c4)OCO5)n3)CC2=O)cc1OC` (stereo unspecified): 770 s; for `COc1ccccc1C(=O)Nc1nc(-c2ccccc2)cs1`: 1110 s.
Molecule `CC(=O)Nc1nc(N2CCC(C(=O)NCc3ccccc3)CC2)sc1C(=O)N1CCCC1` registered an RP-LC retention time of 699 s.
The figure for `c1ccc2c(c1)nnn2-c1ccncc1` is 699 s.
The figure for `CCNc1nn2ccccc2c1/C=C(/C#N)C(=O)OCC` is 936 s; for `O=C(c1cc(-c2cccnc2)n[nH]1)N1CCC(C(=O)N2CCN(c3ccc(Cl)cc3)CC2)CC1` it is 694 s; for `Cc1c(Cl)cccc1NC(=O)C1CCCN(c2nc3ccccc3nc2C(F)(F)F)C1` (stereo unspecified) it is 1230 s.
The same measure for `O=C(CCCn1c(=O)c2cccn2c2ccc(F)cc21)NCCN1CCCCCC1`: 635 s.
Molecule `Cc1ccn2cc(-c3ccc(NC(=O)c4ccccc4F)cc3)nc2n1` yielded an RP-LC retention time of 634 s.
The same measure for `CCn1cc(-c2ccc(F)cc2)cc1C(=O)N1CCOCC1`: 869 s.
In turn, `COc1ccc(C(C)NC(=O)C2CCN(c3cncnc3N3CCOCC3)CC2)cc1` (stereo unspecified) yielded an RP-LC retention time of 601 s.
The same measure for `COC(=O)c1ccc(NC(=O)C2=Cc3ccccc3OC=C2)cc1`: 1060 s.
`O=C1CC(c2noc(-c3ccccc3)n2)CN1c1ccc(F)c(Cl)c1` (stereo unspecified) showed an RP-LC retention time of 1070 s.
Take `Cc1ccc(NC(=O)N2CCN(c3cnn4c(C)nnc4c3)CC2)cc1Cl`: the RP-LC retention time is 674 s.
The same measure for `Nc1ccc2c(c1)Cc1cc(Cl)c(Cl)cc1-2`: 963 s.
The same measure for `CC(=O)N1CCc2cc(C(=O)NC(C)C)ccc21`: 644 s; for `Nc1ccc(Nc2nc(-c3ccc(Cl)cc3)cs2)cc1`: 947 s.
The figure for `CCCNC(=O)N1CCc2c(c(-c3nc(Cc4ccccc4)no3)nn2C)C1` is 780 s.
`Cc1ccc(CNC(=O)c2nnc(-c3oc4c(C)cccc4c3C)o2)o1` displayed an RP-LC retention time of 1140 s.
`CCOc1ccccc1NC(=O)C1CCN(S(=O)(=O)c2c(C)nn(-c3ccccc3)c2C)CC1`: the RP-LC retention time was 1030 s.
The figure for `O=C(NCCC1=CCCCC1)C(=O)NCC1CCN(Cc2ccco2)CC1` is 581 s; for `Cc1ccc(F)c(NC(=O)c2cn3c(n2)CSCC3)c1` it is 811 s.
The same measure for `CCc1ccc(-c2cc3c(=O)n(CC(=O)NCC4CCCN4CC)ncn3n2)cc1` (stereo unspecified): 689 s; for `Cc1ccc(C)c(NC(=O)N2CCCC2c2nc(-c3ccc(F)cc3F)no2)c1` (stereo unspecified): 1010 s; for `COc1ccccc1NC(=O)C1CCc2nc(N3CCOCC3)ncc2C1` (stereo unspecified): 741 s.
The same measure for `CS(=O)(=O)c1ccc(CC(=O)Nc2nnc(C3CCCO3)o2)cc1` (stereo unspecified): 578 s; for `COCCn1c(SCc2nc(-c3cccc(F)c3)no2)nc2cc3c(cc2c1=O)OCO3`: 1090 s; for `O=C1CC(c2noc(-c3ccccc3F)n2)CN1c1ccc(F)cc1` (stereo unspecified): 916 s.
Take `CCn1cc(-c2nc(C)c(C(=O)Nc3ccc(N4CCOCC4)cc3)s2)c2cccnc21`: the RP-LC retention time came out at 863 s.
The same measure for `O=C(Nc1ccc2c(c1)OCCO2)N1c2ccccc2CC1c1nc(C2CC2)no1` (stereo unspecified): 966 s.
The figure for `CC1=NOC(C)(CNC(=O)NC(C)(C)C)C1` (stereo unspecified) is 627 s.
The same measure for `O=C(Cn1cnc(-c2noc(-c3ccccc3)n2)c1)NCc1ccccc1`: 803 s; for `COCCN1CCn2cc(S(=O)(=O)Nc3ccc(OC)cc3)cc2C1=O`: 662 s.
`O=C(Nc1ccc(N2CCN(Cc3ccccc3)C2=O)nc1)C1CCC1` returned an RP-LC retention time of 737 s.
The figure for `CC1=NN(c2nc3ccccc3[nH]2)C(=O)C1Cc1ccccc1` (stereo unspecified) is 796 s; for `CCN(CC)CCCNC(=O)C1CCCN(c2ncnc3c2nc2n3CCCCC2)C1` (stereo unspecified) it is 556 s.
`O=C(Cn1c(=O)c2cccn2c2ccccc21)Nc1ccccc1F` had an RP-LC retention time of 824 s.
The figure for `CCNC(=O)N1CCCC1c1cc(C)no1` (stereo unspecified) is 615 s; for `C#CCOCC1CCN(C(=O)CSCc2ccccc2)CC1` it is 850 s.
The figure for `COCCn1cc(C(=O)Nc2ccccc2F)c2nn(-c3ccccc3)c(=O)c-2c1` is 880 s; for `CN(C)C(CNS(=O)(=O)c1cc(Cl)ccc1Cl)c1cccs1` (stereo unspecified) it is 591 s; for `COCCNc1c(-c2ccc(C)cc2)nc2sc(C(=O)N(C)C)c(C)n12` it is 698 s.
In turn, `COc1ccccc1-c1noc(Cn2ncn3nc(-c4ccc(C)cc4C)cc3c2=O)n1` displayed an RP-LC retention time of 1130 s.
Molecule `Cc1noc(C)c1CCNC(=O)c1cc2c(-c3cccs3)nn(-c3ccccc3)c2n1C` came in with an RP-LC retention time of 1000 s.
The same measure for `CCn1c(=O)c(N2CCCC(C(=O)NCCc3c[nH]c4ccc(OC)cc34)C2)nc2ccccc21` (stereo unspecified): 907 s; for `C[C@@H](Nc1cc(NS(=O)(=O)N2CCC2)nc(SCc2cccc(F)c2F)n1)[C@@H](O)CO`: 845 s.
The same measure for `CCN(CC)C(=O)c1ccc2oc(CN3CCN(C(=O)NCc4ccco4)CC3)nc2c1`: 626 s; for `CCCCN1C(=O)C(CC(=O)N2CCCC2)Sc2ncccc21` (stereo unspecified): 755 s.
The same measure for `CCCNC(=O)c1cc(C)nc2c(C)cc(C)cc12`: 650 s.
